Values after ≈ are worked out from the molar mass of the structure shown. Values joined by “and” are separate entries in the source; they are usually repeats but may differ in a detail not shown here. Identical values can stand only once.
Experiments:
[1] = biological target: T1, human recombinant monoamine oxidase A (Homo sapiens, UniProt P21397); assay: Inhibition of MAO-A, kynuramine fluorescence assay; type: biochemical; settings: mean ± SD
T1 construct: purchased Sigma Aldrich; host or cells: baculovirus infected insect cells (microsomes)
T1 sequence (P21397 1-527): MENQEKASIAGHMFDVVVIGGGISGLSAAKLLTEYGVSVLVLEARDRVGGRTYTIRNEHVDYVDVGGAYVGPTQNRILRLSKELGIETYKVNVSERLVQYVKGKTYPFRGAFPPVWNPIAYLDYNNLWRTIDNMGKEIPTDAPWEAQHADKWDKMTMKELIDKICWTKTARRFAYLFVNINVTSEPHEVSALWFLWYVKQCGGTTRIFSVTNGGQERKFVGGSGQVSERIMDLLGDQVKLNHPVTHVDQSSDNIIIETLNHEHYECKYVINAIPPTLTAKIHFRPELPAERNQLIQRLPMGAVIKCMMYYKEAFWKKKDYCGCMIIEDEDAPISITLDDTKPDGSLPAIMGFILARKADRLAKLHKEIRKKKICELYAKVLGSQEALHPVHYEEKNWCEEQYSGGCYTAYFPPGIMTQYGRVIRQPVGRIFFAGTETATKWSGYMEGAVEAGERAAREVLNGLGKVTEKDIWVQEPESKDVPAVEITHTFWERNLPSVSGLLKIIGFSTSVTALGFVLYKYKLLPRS
Procedure: (§1) Herein, a number of newly and previously synthesized 3-benzazecine analogs, including either allene (Figure 1, scaffold A) or 6- and 8-ylidene (B and C) derivatives, were firstly assayed as inhibitors of AChE, BChE, and MAOs at 10 μM concentration.
(§2) Inhibition of human recombinant monoamine oxidases A (250 U/mg) and B (59 U/mg; microsomes from baculovirus infected insect cells; Sigma Aldrich) was determined as already described, measuring the fluorescence of 4-hydroxyquinoline produced by MAOs in the oxidative deamination of substrate kynuramine. Briefly, compounds were tested in coincubation with MAO and kynuramine in phosphate buffer 390 mOsm pH 7.4, at 37 °C for 30 min. Assays were performed in 96-well black polystyrene plates (Greiner) using the Infinite M1000 Pro plate reader (Tecan). Inhibition data were obtained as means ± SD using GraphPad Prism.

[2] = biological target: T2, human recombinant monoamine oxidase B (Homo sapiens, UniProt P27338); assay: Inhibition of MAO-B, kynuramine fluorescence assay; type: biochemical; settings: mean ± SD
T2 construct: purchased Sigma Aldrich; host or cells: baculovirus infected insect cells (microsomes)
T2 sequence (P27338 1-520): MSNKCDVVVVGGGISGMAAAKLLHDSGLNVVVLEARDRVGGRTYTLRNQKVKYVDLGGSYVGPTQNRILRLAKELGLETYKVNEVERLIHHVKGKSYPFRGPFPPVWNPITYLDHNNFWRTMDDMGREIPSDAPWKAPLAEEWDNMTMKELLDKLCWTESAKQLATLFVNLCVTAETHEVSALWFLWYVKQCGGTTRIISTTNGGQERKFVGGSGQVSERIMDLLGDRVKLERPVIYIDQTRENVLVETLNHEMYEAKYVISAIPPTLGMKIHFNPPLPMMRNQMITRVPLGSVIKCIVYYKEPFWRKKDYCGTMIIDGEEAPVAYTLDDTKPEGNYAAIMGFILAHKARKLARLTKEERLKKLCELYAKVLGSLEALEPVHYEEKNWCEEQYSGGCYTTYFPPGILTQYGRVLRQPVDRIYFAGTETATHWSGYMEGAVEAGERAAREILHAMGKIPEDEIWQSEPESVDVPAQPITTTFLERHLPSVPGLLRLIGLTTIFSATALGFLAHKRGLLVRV
Procedure: as §1, §2

BChE from human serum = BChE from human serum (Homo sapiens, UniProt P06276); settings: screened at 10 μM; n.i. = no inhibition
Procedure: as §1
(§3) Inhibition of human recombinant AChE (2770 U/mg) or BChE from human serum (50 U/mg) was determined as described using the Ellman spectrophotometric method in a 96-well plate procedure. Briefly, test compounds were incubated in phosphate buffer pH 8.0 in the presence of the enzyme and 5,5′-dithiobis-(2-nitrobenzoic acid) (DTNB) as the chromophoric reagent. Incubation samples were made in 96-well, flat-bottomed transparent polystyrene plates (Greiner Bio-One, Kremsmünster, Austria), at 25 °C for 20 min, and read at 412 nm using an Infinite M1000 Pro plate reader (Tecan, Cernusco s.N., Italy). For inhibition kinetics, four concentrations of compound 3e (ranging from 0 to 15 μM), and six concentrations of acetylthiocholine (from 33 to 200 μM) were used. Inhibition data and kinetics were obtained as means ± SD from 3 independent experiments, using GraphPad Prism (version 5.00 for Windows; GraphPad Software, San Diego, CA, USA).

human recombinant AChE = human recombinant AChE (Homo sapiens, UniProt P22303); settings: for IC50: read-out: hAChE half-maximal inhibitory concentration, mean ± SD of three independent measurements, unit from b17 (low μM range)
Procedure: as §1, §3

[3] = Kinetic aqueous solubility by U-HPLC
Procedure: Following shaking of the suspension in an orbital shaker at 250 rpm for 2 h, the solution was separated by centrifugation (2500 rpm, 3 min) and filtered. Equal volume of solution was transferred into 1:1 (v/v) mixture of DMSO/PBS. The concentration of compound was determined by U-HPLC and UV detector (255 nm) comparing the peak area of external standard solution. All data were means of 3 independent experiments (± SEM). […] HPLC analyses were performed on an Agilent U-HPLC 1260 Infinity Quaternary LC system (Agilent Technologies, Milan, Italy) (Table 4).

[4] = Hydrolytic stability in water-buffered solution by U-HPLC; settings: PBS pH 7.4, 0.15 M KCl, 37 °C (table footnote)
Procedure: At appropriate time intervals, samples were withdrawn and analyzed by U-HPLC using a 1290 Infinity Quaternary LC system (Agilent Technologies, Milan, Italy) equipped with autosampler and photodiode array detector. A Phenomenex Kinetex C18 column 2.6 µm (150 × 2.1 mm i.d.) was used as stationary phase. […] Pseudo-first-order rate constants (kobs) for the hydrolysis of the compound were calculated from the slopes of the linear plots of log (% remaining compound) against time.

Sequence of BChE from human serum (P06276 29-602): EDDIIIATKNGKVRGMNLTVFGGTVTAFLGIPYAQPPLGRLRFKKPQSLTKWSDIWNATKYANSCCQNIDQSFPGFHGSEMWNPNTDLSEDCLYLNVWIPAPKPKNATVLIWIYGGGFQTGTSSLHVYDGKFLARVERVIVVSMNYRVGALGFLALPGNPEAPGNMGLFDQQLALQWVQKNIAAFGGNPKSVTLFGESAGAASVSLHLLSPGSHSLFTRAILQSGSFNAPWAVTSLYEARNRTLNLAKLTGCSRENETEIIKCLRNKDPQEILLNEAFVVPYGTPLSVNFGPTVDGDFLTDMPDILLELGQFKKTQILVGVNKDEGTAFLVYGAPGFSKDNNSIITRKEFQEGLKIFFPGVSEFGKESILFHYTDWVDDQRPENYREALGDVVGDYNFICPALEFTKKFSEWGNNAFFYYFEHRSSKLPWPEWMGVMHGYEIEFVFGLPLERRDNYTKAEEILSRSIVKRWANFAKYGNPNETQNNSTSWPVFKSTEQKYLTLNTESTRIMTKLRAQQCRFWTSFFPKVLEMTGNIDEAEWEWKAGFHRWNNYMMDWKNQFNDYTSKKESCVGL
Sequence of human recombinant AChE (P22303 32-614): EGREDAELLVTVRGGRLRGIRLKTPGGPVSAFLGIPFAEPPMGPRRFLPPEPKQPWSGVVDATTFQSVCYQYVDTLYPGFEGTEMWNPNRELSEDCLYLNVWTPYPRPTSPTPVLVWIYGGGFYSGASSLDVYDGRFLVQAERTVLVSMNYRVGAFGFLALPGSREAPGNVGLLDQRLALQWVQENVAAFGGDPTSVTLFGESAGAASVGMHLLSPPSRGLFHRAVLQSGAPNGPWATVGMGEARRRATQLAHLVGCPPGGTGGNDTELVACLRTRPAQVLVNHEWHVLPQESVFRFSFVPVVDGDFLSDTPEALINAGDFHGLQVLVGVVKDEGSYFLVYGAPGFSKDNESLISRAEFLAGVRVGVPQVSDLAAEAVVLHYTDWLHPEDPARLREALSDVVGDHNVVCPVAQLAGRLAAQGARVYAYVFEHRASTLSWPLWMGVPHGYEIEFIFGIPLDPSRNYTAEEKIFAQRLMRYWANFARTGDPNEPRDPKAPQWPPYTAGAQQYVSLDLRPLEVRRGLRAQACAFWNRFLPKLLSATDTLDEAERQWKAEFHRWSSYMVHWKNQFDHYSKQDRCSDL

Row | Structure (SMILES) | hMAO-A % inhibition at 10 μM [1] | hMAO-B % inhibition at 10 μM [2] | hBChE inhibition (BChE from human serum) | IC50 (human recombinant AChE) [µM] | Ki (human recombinant AChE; read-out: AChE inhibition, Ki, Lineweaver–Burk inhibition kinetics, acetylthiocholine substrate) | Water solubility relative to 3n ([3]; 3e vs 3n, buffered aqueous solution pH 7.4) [fold] | Solubility ([3]; PBS pH 7.4, 0.15 M KCl, 37 °C, kinetic solubility) [µM] | Hydrolytic half-life [4] [h]
1 | COCC1=C=C(c2ccc(C)cc2)c2cc(OC)c(OC)cc2CCN(C)C=C1C(=O)OC [Compound 3d, Methyl 3-methyl-8-(4-methylphenyl)-10,11-dimethoxy-6-(methoxymethyl)-benzo[d]-3-aza-cyclodeca-4,6,7-triene-5-carboxylate] | (30 ± 4) % | (30 ± 5) % | n.i. | 19.3 ± 3.3 |  |  |  | 
2 | COCC1=C=C(c2ccc(C)cc2)c2cc(OC)c(OC)cc2CCN(C)C=C1C(C)=O [Compound 3i, 1-(3-Methyl-8-(4-methylphenyl)-10,11-dimethoxy-6-methoxymethyl-benzo[d]-3-aza-cyclodeca-4,6,7-trien-5-yl)ethanone] | (28 ± 1) % | (38 ± 4) % | n.i. | 32.5 ± 4.4 |  |  |  | 
3 | COCC1=C=C(c2ccc(OC)cc2)c2cc(OC)c(OC)cc2CCN(C)C=C1C(C)=O [Compound 3j, 1-(3-Methyl-10,11-dimethoxy-6-methoxymethyl-8-(4-methoxyphenyl)-benzo[d]-3-aza-cyclodeca-4,6,7-trien-5-yl)ethanone] | (29 ± 5) % | (28 ± 5) % | n.i. | 13.2 ± 0.7 |  |  |  | 
4 | COCC1=C=C(c2ccc(OC)cc2)c2cc(OC)c(OC)cc2CCN(C)C=C1C(=O)OC [Compound 3e, Methyl 3-methyl-10,11-dimethoxy-6-methoxymethyl-8-(4-methoxyphenyl)-benzo[d]-3-aza-cyclodeca-4,6,7-triene-5-carboxylate] | (37 ± 5) % | (23 ± 1) % | n.i. | 12.2 ± 2.6 | 4.9 µM and 4.89 µM | 90 | 17.4 ± 0.7 (≈ 8.1 µg/mL) | 4.5

— PMC9571408, “Synthesis of Isomeric 3-Benzazecines Decorated with Endocyclic Allene Moiety and Exocyclic Conjugated Double Bond and Evaluation of Their Anticholinesterase Activity” (Molecules, 2022)
